Laboratory results as given in patent US11384078B2, “5,6-fused-bicyclic compounds and compositions for the treatment of parasitic diseases” (NOVARTIS AG, priority 2017, dated 2022).
Where two headings read alike, the source gives them in different places.

What was measured:
Format in all cases: cell-based
[1] = system: Trypanosoma cruzi amastigotes cultured in 3T3 fibroblast cells; assay: Assay for growth inhibition of kinetoplastid parasite Trypanosoma cruzi (beta-galactosidase Tulahuen strain, CPRG readout); conditions: Trypanosoma cruzi, Fibroblast, T. cruzi amastigotes in 3T3 fibroblast cells; read-out: Buckner infectious T. cruzi EC50
In short: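 3T3 fibroblasts (1,000 cells/well) plated overnight, treated with compound in DMSO, then infected with 10,000 Lac-Z-expressing Tulahuen trypomastigotes. After 6 days, 0.6 mM CPRG with 0.6% NP-40 added for 2 h at room temperature; absorbance gives relative intracellular amastigote numbers. Benznidazole and nifurtimox serve as positive controls.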

[2] = system: Trypanosoma brucei brucei (Lister 427) strain; assay: Assay for growth inhibition against Trypanosoma brucei brucei (Cell TiterGlo ATP luminescence); conditions: T. brucei brucei (Lister 427), read-out: T. Brucei (HAT) EC50
In short: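 Growth read-out is cellular ATP by CellTiter-Glo luminescence, measured 30 min after reagent addition, following 2-day incubation at 37 °C in CO2. Parasites (10,000/mL, HMI-9 plus 10% FBS and 10% serum plus) faced 10 threefold dilutions in duplicate; IC50 taken as 50% growth inhibition versus untreated.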

[3] = system: L. donovani HU3 strain in mouse peritoneal macrophages; assay: Assay for inhibition of parasitemia of Leishmania donovani in mouse macrophages (SYBR Green nuclei count, high-content imaging); conditions: Leishmania donovani, Peritoneal macrophage, L. donovani in mouse peritoneal macrophages; read-out: L. donovani in Mouse Macrophages EC50
In short: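 Parasite numbers were counted from SYBR Green-stained nuclei imaged by high-content microscopy after paraformaldehyde fixation and Triton permeabilization. Before this, compound was applied for 5 days at 37° C to BALB/c peritoneal macrophages (2×10^4/well) that had been exposed 24 h to 4×10^5 L. donovani HU3 amastigotes harvested from infected mouse spleens.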

[4] = system: Leishmania donovani axenic amastigote; assay: In vitro assay for growth inhibition of Leishmania donovani axenic amastigote (Cell TiterGlo luminescence); conditions: Leishmania donovani, L. donovani axenic amastigotes in vitro; read-out: L. donovani amastigotes EC50
In short: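 Compound-treated wells received 9600 axenic amastigotes in RPMI 1640-based medium at pH 5.5 (37 °C, 5% CO2). Growth measured as ATP luminescence (CellTiter-Glo) after 2-day incubation; DMSO and reference compounds served as controls.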

`CC(C)CNc1cnc2nn(-c3cc(NC(=O)N4CC(F)C4)ccc3F)cc2c1` [Compound 198, 3-fluoro-N-(4-fluoro-3-{5-[(2-methylpropyl)amino]-2H-pyrazolo[3,4-b]pyridin-2-yl}phenyl)azetidine-1-carboxamide] was tested, and the EC50 [1] was 23 nM, the EC50 ([2]; Trypanosoma brucei) was 5 nM and the EC50 [3] was 49 nM. The EC50 [4] was 546 nM.
For `CCNc1cnc2nn(-c3cc(NC(=O)N4CC(F)C4)ccc3F)cc2c1` [Compound 199, N-{3-[5-(ethylamino)-2H-pyrazolo[3,4-b]pyridin-2-yl]-4-fluorophenyl}-3-fluoroazetidine-1-carboxamide], the EC50 [1] was 24 nM, the EC50 ([2]; Trypanosoma brucei) was 5 nM and the EC50 [3] was 21 nM. For the same molecule, the EC50 [4] was 502 nM.
`CC(C)Nc1cnc2nn(-c3cc(NC(=O)N4CC(F)C4)ccc3F)cc2c1` [Compound 200, 3-fluoro-N-(4-fluoro-3-{5-[(propan-2-yl)amino]-2H-pyrazolo[3,4-b]pyridin-2-yl}phenyl)azetidine-1-carboxamide] gave an EC50 [1] of 15 nM, an EC50 ([2]; Trypanosoma brucei) of 5 nM and an EC50 [3] of 7 nM. The EC50 [4] was 974 nM.
Molecule `O=C(Nc1ccc(F)c(-n2cc3cc(N4CC5(CCO5)C4)cnc3n2)c1)N1CC(F)C1` [Compound 201, 3-fluoro-N-[4-fluoro-3-(5-{1-oxa-6-azaspiro[3.3]heptan-6-yl}-2H-pyrazolo[3,4-b]pyridin-2-yl)phenyl]azetidine-1-carboxamide] has an EC50 [1] of 20 nM, an EC50 ([2]; Trypanosoma brucei) of 5 nM and an EC50 [3] of 4 nM. The EC50 [4] was 192 nM.
`O=C(Nc1ccc(F)c(-n2cc3cc(N4CC5(CCOC5)C4)cnc3n2)c1)N1CC(F)C1` [Compound 202, 3-fluoro-N-[4-fluoro-3-(5-{6-oxa-2-azaspiro[3.4]octan-2-yl}-2H-pyrazolo[3,4-b]pyridin-2-yl)phenyl]azetidine-1-carboxamide] showed an EC50 [1] of 25 nM, an EC50 ([2]; Trypanosoma brucei) of 5 nM and an EC50 [3] of 10 nM. The EC50 [4] was 463 nM.
`O=C(Nc1ccc(F)c(-n2cc3cc(N4CC5(CCOCC5)C4)cnc3n2)c1)N1CC(F)C1` [Compound 203, 3-fluoro-N-[4-fluoro-3-(5-{7-oxa-2-azaspiro[3.5]nonan-2-yl}-2H-pyrazolo[3,4-b]pyridin-2-yl)phenyl]azetidine-1-carboxamide] showed an EC50 [1] of 20 nM, an EC50 ([2]; Trypanosoma brucei) of 5 nM and an EC50 [3] of 9 nM. The EC50 [4] was 490 nM.
`O=C(Nc1ccc(F)c(-n2cc3cc(N4CC5C(C4)C5(F)F)cnc3n2)c1)N1CC(F)C1` (stereo not drawn) [Compound 204, N-[3-(5-{6,6-difluoro-3-azabicyclo[3.1.0]hexan-3-yl}-2H-pyrazolo[3,4-b]pyridin-2-yl)-4-fluorophenyl]-3-fluoroazetidine-1-carboxamide] showed an EC50 [1] of 2 nM, an EC50 ([2]; Trypanosoma brucei) of 5 nM and an EC50 [3] of 4 nM. The EC50 [4] was 74 nM.
In the case of `COC1CN(c2cnc3nn(-c4cc(NC(=O)N5CC(F)C5)ccc4F)cc3c2)C1` [Compound 205, 3-fluoro-N-{4-fluoro-3-[5-(3-methoxyazetidin-1-yl)-2H-pyrazolo[3,4-b]pyridin-2-yl]phenyl}azetidine-1-carboxamide], the EC50 [1] is reported as 15 nM, the EC50 ([2]; Trypanosoma brucei) is reported as 5 nM and the EC50 [3] is reported as 11 nM. It also gave an EC50 [4] of 197 nM.
`N#Cc1ccc(C(=O)Nc2ccc(F)c(-n3cc4cc(-c5ccccn5)cnc4n3)c2)o1` [Compound 206, 5-cyano-N-{4-fluoro-3-[5-(pyridin-2-yl)-2H-pyrazolo[3,4-b]pyridin-2-yl]phenyl}furan-2-carboxamide] showed an EC50 [1] of 1 nM, an EC50 ([2]; Trypanosoma brucei) of 5 nM and an EC50 [3] of 13 nM. It also gave an EC50 [4] of 2 nM.
Molecule `CCOC1CC1C(=O)Nc1ccc(F)c(-n2cc3cc(C(C)C)cnc3n2)c1` (stereo not drawn) [Compound 207, 2-ethoxy-N-{4-fluoro-3-[5-(propan-2-yl)-2H-pyrazolo[3,4-b]pyridin-2-yl]phenyl}cyclopropane-1-carboxamide] has an EC50 [1] of 1270 nM, an EC50 ([2]; Trypanosoma brucei) of 1820 nM and an EC50 [3] of 2060 nM. The EC50 [4] was 1830 nM.
`CC(C)c1cnc2nn(-c3cc(NC(=O)C4CC4(F)F)ccc3F)cc2c1` (stereo not drawn) [Compound 208, 2,2-difluoro-N-{4-fluoro-3-[5-(propan-2-yl)-2H-pyrazolo[3,4-b]pyridin-2-yl]phenyl}cyclopropane-1-carboxamide] was tested, and the EC50 [1] was 358 nM, the EC50 ([2]; Trypanosoma brucei) was 375 nM and the EC50 [3] was 1920 nM. It also gave an EC50 [4] of 921 nM.
With `CC(C)c1cnc2nn(-c3cc(NC(=O)C4(C(F)(F)F)CC4)ccc3F)cc2c1` [Compound 209, N-{4-fluoro-3-[5-(propan-2-yl)-2H-pyrazolo[3,4-b]pyridin-2-yl]phenyl}-1-(trifluoromethyl)cyclopropane-1-carboxamide] the EC50 [1] was 5090 nM, the EC50 ([2]; Trypanosoma brucei) was 6540 nM and the EC50 [3] was 381 nM. The EC50 [4] was 25000 nM.
`CC(C)c1cnc2nn(-c3cc(NC(=O)C4CC4C)ccc3F)cc2c1` (stereo not drawn) [Compound 211, N-{4-fluoro-3-[5-(propan-2-yl)-2H-pyrazolo[3,4-b]pyridin-2-yl]phenyl}-2-methylcyclopropane-1-carboxamide] showed an EC50 [1] of 72 nM, an EC50 ([2]; Trypanosoma brucei) of 35 nM and an EC50 [3] of 302 nM. For the same molecule, the EC50 [4] was 496 nM.
Molecule `CC(C)c1cnc2nn(-c3cc(NC(=O)CC(F)(F)F)ccc3F)cc2c1` [Compound 212, 3,3,3-trifluoro-N-{4-fluoro-3-[5-(propan-2-yl)-2H-pyrazolo[3,4-b]pyridin-2-yl]phenyl}propanamide] has an EC50 [1] of 1750 nM, an EC50 ([2]; Trypanosoma brucei) of 2030 nM and an EC50 [3] of 8860 nM. It also gave an EC50 [4] of 11300 nM.
`CC(C)c1cnc2nn(-c3cc(NC(=O)CCCC(F)(F)F)ccc3F)cc2c1` [Compound 214, 5,5,5-trifluoro-N-{4-fluoro-3-[5-(propan-2-yl)-2H-pyrazolo[3,4-b]pyridin-2-yl]phenyl}pentanamide] gave an EC50 [1] of 1420 nM, an EC50 ([2]; Trypanosoma brucei) of 1060 nM and an EC50 [3] of 658 nM. It also gave an EC50 [4] of 4600 nM.
With `CC(C)c1cnc2nn(-c3cc(NC(=O)CCC4CC4)ccc3F)cc2c1` [Compound 215, 3-cyclopropyl-N-{4-fluoro-3-[5-(propan-2-yl)-2H-pyrazolo[3,4-b]pyridin-2-yl]phenyl}propanamide] the EC50 [1] was 738 nM, the EC50 ([2]; Trypanosoma brucei) was 947 nM and the EC50 [3] was 2980 nM. For the same molecule, the EC50 [4] was 4700 nM.
`CC(C)c1cnc2nn(-c3cc(NC(=O)CC4CCC4)ccc3F)cc2c1` [Compound 216, 2-cyclobutyl-N-{4-fluoro-3-[5-(propan-2-yl)-2H-pyrazolo[3,4-b]pyridin-2-yl]phenyl}acetamide] gave an EC50 [1] of 435 nM, an EC50 ([2]; Trypanosoma brucei) of 620 nM and an EC50 [3] of 4670 nM. It also gave an EC50 [4] of 3700 nM.
With `O=C(Nc1ccc(F)c(-n2cc3cc(-c4ccccn4)cnc3n2)c1)C1=CCC1` [Compound 218, N-{4-fluoro-3-[5-(pyridin-2-yl)-2H-pyrazolo[3,4-b]pyridin-2-yl]phenyl}cyclobut-1-ene-1-carboxamide] the EC50 [1] was 38 nM, the EC50 ([2]; Trypanosoma brucei) was 3 nM and the EC50 [3] was 212 nM. The EC50 [4] was 4 nM.
Molecule `C[C@@H]1CN(c2cnc3nn(-c4cc(NC(=O)N5CC(F)C5)ccc4F)cc3c2)C[C@H](C)O1` [Compound 230, N-(3-{5-[(2R,6S)-2,6-dimethylmorpholin-4-yl]-2H-pyrazolo[3,4-b]pyridin-2-yl]-4-fluorophenyl)-3-fluoroazetidine-1-carboxamide] has an EC50 [1] of 47 nM, an EC50 [2] of 5 nM and an EC50 [3] of 22 nM. It also gave an EC50 [4] of 37 nM.
For `O=C(Nc1ccc(F)c(-n2cc3cc(N4CCC45COC5)cnc3n2)c1)N1CC(F)C1` [Compound 231, 3-fluoro-N-{4-fluoro-3-(5-{6-oxa-1-azaspiro[3.3]heptan-1-yl}-2H-pyrazolo[3,4-b]pyridin-2-yl)phenyl}azetidine-1-carboxamide], the EC50 [1] was 126 nM, the EC50 [2] was 6 nM and the EC50 [3] was 113 nM. For the same molecule, the EC50 [4] was 34 nM.
`COCC1CN(c2cnc3nn(-c4cc(NC(=O)N5CC(F)C5)ccc4F)cc3c2)C1` [Compound 232, 3-fluoro-N-(4-fluoro-3-{5-[3-(methoxymethyl)azetidin-1-yl]-2H-pyrazolo[3,4-b]pyridin-2-yl]phenyl)azetidine-1-carboxamide] was tested, and the EC50 [1] was 12 nM, the EC50 [2] was 5 nM and the EC50 [3] was 10 nM. The EC50 [4] was 12 nM.
`O=C(Nc1ccc(F)c(-n2cc3cc(N4CC5(CC5)C4)cnc3n2)c1)N1CC(F)C1` [Compound 233, N-[3-(5-{5-azaspiro[2.3]hexan-5-yl}-2H-pyrazolo[3,4-b]pyridin-2-yl)-4-fluorophenyl]-3-fluoroazetidine-1-carboxamide] showed an EC50 [1] of 5 nM, an EC50 [2] of 4 nM and an EC50 [3] of 10 nM. The EC50 [4] was 13 nM.
`O=C(Nc1ccc(F)c(-n2cc3cc(N4C[C@@H](F)[C@H](F)C4)cnc3n2)c1)N1CC(F)C1` [Compound 234, N-(3-{5-[(3R,4R)-3,4-difluoropyrrolidin-1-yl]-2H-pyrazolo[3,4-b]pyridin-2-yl]-4-fluorophenyl)-3-fluoroazetidine-1-carboxamide] showed an EC50 [1] of 9 nM, an EC50 [2] of 5 nM and an EC50 [3] of 3 nM. For the same molecule, the EC50 [4] was 27 nM.
Molecule `O=C(Nc1ccc(F)c(-n2cc3cc(N4C5CCC4COC5)cnc3n2)c1)N1CC(F)C1` [Compound 235, 3-fluoro-N-[4-fluoro-3-(5-{3-oxa-8-azabicyclo[3.2.1]octan-8-yl}-2H-pyrazolo[3,4-b]pyridin-2-yl)phenyl}azetidine-1-carboxamide] has an EC50 [1] of 11 nM, an EC50 ([2]; Trypanosoma brucei) of 5 nM and an EC50 [3] of 10 nM. The EC50 [4] was 11 nM.
